Biological target: T1, zebrafish Ape1 (zApe1) (Danio rerio, UniProt A0MTA1, T58C)
T1 sequence (A0MTA1 1-310 T58C): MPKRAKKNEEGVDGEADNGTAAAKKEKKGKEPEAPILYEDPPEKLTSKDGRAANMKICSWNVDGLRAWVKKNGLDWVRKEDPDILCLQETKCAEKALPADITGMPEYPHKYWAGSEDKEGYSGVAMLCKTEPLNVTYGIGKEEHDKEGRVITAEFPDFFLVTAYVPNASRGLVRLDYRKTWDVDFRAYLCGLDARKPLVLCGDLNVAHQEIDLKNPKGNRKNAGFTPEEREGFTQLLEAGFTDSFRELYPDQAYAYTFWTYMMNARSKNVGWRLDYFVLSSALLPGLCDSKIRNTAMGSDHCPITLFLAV
Assay: redox EMSA: Ape1-stimulated AP-1 DNA binding, HEX-labelled oligonucleotide
Format: biochemical

Compound: CCCCCCCCC/C(=C\C1=C(C)C(=O)C(OC)=C(OC)C1=O)C(=O)O [compound 5, (E)-3-(4,5-dimethoxy-2-methyl-3,6-dioxocyclohexa-1,4-dienyl)-2-nonylpropenoic acid]
- IC50: 5 µM
